Patent US20070254312A1, “Protein Kinase Inhibitors and Methods for Identiying Same” (priority 2004, published 2007)
Values belong to the compound of their own block, whether it stands above or below them. Starred links: 1 amine or outer side, 2 acyl side, 3 side chain; linkers in the order of their positions; H or OH if unused. Non-standard residues stand in square brackets, D forms with d. Residues, ends and D or L forms follow the SMILES beside them. Groups on a side chain read outwards from the residue. *: point of attachment. X2 = N=C(N)NCCC[C@@H](C(=O)*)N(Cc1cccc(O)c1O)Cc1cccc(O)c1O; Benzoyl(4-NO2) = O=C(c1ccc([N+](=O)[O-])cc1)*; Cysteamide = C(CS[*:3])N[*:1]; Dap = NC[C@H](N)C(=O)O

Key:
Type in all cases: biochemical
[1] = biological target: T1, PKCζ (Homo sapiens, UniProt Q05513); test: PKC ζ screen, IC50 and Ki determination (Example 2); parameters: purchased Panvera
T1 sequence (Q05513 1-592): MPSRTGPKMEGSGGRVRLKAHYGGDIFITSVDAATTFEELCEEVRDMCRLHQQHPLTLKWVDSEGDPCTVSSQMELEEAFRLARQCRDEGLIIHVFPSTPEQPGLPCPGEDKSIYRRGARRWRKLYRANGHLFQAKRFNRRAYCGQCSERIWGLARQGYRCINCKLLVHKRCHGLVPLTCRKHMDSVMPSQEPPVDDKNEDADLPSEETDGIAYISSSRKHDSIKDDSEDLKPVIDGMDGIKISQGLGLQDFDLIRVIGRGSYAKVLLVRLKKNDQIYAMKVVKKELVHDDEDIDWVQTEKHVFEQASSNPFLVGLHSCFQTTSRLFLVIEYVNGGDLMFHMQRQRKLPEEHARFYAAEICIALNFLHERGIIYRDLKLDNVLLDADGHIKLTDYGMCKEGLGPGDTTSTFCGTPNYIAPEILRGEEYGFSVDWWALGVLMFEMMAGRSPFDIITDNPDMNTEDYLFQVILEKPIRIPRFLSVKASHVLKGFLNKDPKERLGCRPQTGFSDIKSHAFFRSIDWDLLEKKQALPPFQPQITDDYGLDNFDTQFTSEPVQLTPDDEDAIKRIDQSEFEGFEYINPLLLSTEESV
Protocol: (§1) Protein Kinase C Assays. The peptides […] (for PKC α, β and γ) and […] (for PKC δ, ε, θ, η, τ, and ζ) were used as substrates. […] Total reaction volume in each well was 50 μL. […] Following an additional 5 min incubation at ambient temperature, 75 μL from each reaction well was transferred into each well of a Unifilter (P81 cellulose phosphate paper) assay plate and washed four times with 0.1% phosphoric acid in water. […] Lead compounds from the library were combined into a single 96 well plate and re-assayed as described above in order to identify the best inhibitor. IC50 determinations of resynthesized inhibitor leads for individual PKC isoforms. Assays were performed in triplicate at pH 7.5 and thermostatically maintained at 30° C. using a Boekel constant temperature device. […] The IC50 values for pure compounds as inhibitors were calculated based on the experimental data using GraFit (Erithacus Software Limited). Protein kinase C δ, ε, θ, and η: As described for PKC α, β, and γ except that the assay was performed in the absence of CaCl2. Protein kinase C τ and ζ: As described for PKC α, β, and γ except that the assay was performed in the absence of CaCl2 and DAG. […] Total reaction volume in each well was 50 μL. All the wells were tested in the same plate and each concentration was tested in triplicate. […] Double reciprocal plots were obtained at different concentrations of substrates. Ki values were calculated using Enzyme Kinetics, SigmaPlot (SPSS Inc.).

[2] = biological target: T2, PKC βI (Homo sapiens, UniProt P05771); test: IC50 determination for individual PKC isoforms (Example 2)
T2 construct: purchased Panvera
Protocol: (§2) Protein Kinase C Assays. The peptides […] (for PKC α, β and γ) and […] (for PKC δ, ε, θ, η, τ, and ζ) were used as substrates. IC50 determinations of resynthesized inhibitor leads for individual PKC isoforms. Assays were performed in triplicate at pH 7.5 and thermostatically maintained at 30° C. using a Boekel constant temperature device. […] The IC50 values for pure compounds as inhibitors were calculated based on the experimental data using GraFit (Erithacus Software Limited). Protein kinase C δ, ε, θ, and η: As described for PKC α, β, and γ except that the assay was performed in the absence of CaCl2. Protein kinase C τ and ζ: As described for PKC α, β, and γ except that the assay was performed in the absence of CaCl2 and DAG.

[3] = biological target: PKCα (Homo sapiens, UniProt P17252); test: as above
Protocol: as §2

[4] = biological target: T3, PKC ι (Homo sapiens, UniProt P41743); test: as above
T3 construct: purchased Panvera
T3 sequence (P41743 1-596): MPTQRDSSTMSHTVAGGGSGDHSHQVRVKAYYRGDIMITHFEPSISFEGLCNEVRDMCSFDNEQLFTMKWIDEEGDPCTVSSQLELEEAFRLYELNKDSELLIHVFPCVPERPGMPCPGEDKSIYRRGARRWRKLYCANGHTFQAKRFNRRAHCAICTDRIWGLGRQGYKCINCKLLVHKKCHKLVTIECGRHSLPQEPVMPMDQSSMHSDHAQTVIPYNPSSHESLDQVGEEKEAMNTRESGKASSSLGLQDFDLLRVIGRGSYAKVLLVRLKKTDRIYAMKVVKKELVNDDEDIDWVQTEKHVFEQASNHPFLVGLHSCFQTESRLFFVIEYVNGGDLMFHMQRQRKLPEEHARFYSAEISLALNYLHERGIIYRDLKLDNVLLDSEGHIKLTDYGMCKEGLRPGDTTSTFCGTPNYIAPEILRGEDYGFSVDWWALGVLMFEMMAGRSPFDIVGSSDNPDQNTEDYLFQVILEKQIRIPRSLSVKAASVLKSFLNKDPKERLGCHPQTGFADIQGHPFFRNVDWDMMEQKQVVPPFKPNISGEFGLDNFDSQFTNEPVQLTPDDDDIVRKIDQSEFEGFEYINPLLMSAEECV
Protocol: as §2

[5] = biological target: PKCη (Homo sapiens, UniProt P24723); test: as above; parameters: purchased Panvera
Protocol: as §2

[6] = biological target: T4, PKCε (Homo sapiens, UniProt Q02156); test: as above; parameters: purchased Panvera
T4 sequence (Q02156 1-737): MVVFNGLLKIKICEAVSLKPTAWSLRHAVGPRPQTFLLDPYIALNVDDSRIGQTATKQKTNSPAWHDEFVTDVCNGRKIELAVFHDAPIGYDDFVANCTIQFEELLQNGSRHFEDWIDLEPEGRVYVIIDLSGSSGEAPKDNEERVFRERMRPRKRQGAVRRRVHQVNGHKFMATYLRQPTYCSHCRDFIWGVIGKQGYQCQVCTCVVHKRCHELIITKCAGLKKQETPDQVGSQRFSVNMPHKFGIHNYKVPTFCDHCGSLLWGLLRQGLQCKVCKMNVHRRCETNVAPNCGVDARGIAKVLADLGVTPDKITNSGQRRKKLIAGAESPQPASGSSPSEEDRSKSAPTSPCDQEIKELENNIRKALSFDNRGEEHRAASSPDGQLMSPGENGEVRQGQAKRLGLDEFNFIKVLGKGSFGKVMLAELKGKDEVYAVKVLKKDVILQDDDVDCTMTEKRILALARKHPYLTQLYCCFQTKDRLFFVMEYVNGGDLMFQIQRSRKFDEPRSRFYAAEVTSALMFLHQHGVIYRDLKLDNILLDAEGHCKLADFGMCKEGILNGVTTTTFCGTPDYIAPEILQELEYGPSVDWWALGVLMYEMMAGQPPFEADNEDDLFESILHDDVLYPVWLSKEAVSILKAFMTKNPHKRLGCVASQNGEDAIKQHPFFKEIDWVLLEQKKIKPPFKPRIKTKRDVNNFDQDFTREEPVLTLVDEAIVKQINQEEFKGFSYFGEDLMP
Protocol: as §2

[7] = biological target: PKCγ (Homo sapiens, UniProt P05129); test: as above; parameters: purchased Panvera
Protocol: as §2

[8] = biological target: PKCθ (Homo sapiens, UniProt Q04759); test: as above; parameters: purchased Panvera
Protocol: as §2

[9] = biological target: PKCδ (Homo sapiens, UniProt Q05655); test: PKC δ screen, IC50 and Ki determination (Example 2); parameters: purchased Panvera
Protocol: as §1

[10] = relative to most potently inhibited isoform (=1): δ for F, ζ for G

PKCδ, sequence (Q05655 whole entry): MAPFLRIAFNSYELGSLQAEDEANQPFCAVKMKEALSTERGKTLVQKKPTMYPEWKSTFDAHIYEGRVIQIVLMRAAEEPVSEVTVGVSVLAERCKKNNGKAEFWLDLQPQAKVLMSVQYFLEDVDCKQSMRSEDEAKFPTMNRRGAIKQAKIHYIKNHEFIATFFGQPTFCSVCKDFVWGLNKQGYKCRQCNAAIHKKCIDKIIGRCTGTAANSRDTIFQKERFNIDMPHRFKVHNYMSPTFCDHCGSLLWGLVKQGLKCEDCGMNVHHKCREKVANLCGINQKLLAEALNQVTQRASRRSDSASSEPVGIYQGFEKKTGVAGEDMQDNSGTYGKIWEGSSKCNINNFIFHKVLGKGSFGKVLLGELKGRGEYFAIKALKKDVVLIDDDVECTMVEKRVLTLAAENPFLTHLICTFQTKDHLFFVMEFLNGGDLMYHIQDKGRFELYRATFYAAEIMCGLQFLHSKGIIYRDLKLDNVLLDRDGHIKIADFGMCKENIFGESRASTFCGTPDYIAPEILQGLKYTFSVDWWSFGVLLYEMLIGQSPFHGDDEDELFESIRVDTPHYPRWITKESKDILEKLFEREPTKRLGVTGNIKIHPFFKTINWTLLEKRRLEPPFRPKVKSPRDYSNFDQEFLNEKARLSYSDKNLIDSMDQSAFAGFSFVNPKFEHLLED
T2 sequence (P05771 whole entry, canonical isoform): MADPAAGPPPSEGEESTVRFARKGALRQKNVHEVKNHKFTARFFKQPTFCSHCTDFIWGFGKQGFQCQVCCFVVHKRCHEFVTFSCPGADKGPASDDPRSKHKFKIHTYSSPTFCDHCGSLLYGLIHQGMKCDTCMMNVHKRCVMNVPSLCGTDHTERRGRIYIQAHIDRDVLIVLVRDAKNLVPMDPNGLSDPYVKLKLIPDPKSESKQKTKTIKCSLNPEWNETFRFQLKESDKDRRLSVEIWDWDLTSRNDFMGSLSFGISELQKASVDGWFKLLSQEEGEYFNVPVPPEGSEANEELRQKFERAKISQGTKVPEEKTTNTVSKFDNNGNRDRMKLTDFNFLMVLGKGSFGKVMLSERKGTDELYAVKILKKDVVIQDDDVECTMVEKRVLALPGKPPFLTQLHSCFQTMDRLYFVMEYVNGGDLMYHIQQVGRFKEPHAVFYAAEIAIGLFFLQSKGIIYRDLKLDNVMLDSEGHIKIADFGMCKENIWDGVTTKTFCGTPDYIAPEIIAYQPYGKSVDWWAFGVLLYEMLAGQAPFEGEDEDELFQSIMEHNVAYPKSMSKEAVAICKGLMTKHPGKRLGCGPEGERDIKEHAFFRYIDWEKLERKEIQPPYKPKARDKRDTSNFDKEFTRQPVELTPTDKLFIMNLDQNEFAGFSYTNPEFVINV
PKCη, sequence (P24723 whole entry): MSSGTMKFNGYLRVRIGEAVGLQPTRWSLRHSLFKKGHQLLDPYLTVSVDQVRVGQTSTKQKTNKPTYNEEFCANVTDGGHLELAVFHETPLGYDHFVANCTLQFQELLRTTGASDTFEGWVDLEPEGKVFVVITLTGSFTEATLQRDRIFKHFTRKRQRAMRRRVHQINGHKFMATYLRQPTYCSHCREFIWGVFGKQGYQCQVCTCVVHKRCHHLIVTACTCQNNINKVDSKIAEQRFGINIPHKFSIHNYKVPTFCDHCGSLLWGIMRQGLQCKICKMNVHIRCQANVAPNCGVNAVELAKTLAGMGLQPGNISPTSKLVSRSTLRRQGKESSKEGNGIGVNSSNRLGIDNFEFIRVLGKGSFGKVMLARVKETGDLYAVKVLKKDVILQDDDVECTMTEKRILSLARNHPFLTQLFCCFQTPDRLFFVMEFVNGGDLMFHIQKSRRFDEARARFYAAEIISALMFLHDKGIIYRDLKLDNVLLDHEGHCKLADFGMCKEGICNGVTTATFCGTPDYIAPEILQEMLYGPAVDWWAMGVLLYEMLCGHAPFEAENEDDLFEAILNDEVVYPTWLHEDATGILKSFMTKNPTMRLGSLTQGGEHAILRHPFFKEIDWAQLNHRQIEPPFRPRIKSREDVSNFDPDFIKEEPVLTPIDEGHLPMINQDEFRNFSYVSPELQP
PKCθ, sequence (Q04759 whole entry): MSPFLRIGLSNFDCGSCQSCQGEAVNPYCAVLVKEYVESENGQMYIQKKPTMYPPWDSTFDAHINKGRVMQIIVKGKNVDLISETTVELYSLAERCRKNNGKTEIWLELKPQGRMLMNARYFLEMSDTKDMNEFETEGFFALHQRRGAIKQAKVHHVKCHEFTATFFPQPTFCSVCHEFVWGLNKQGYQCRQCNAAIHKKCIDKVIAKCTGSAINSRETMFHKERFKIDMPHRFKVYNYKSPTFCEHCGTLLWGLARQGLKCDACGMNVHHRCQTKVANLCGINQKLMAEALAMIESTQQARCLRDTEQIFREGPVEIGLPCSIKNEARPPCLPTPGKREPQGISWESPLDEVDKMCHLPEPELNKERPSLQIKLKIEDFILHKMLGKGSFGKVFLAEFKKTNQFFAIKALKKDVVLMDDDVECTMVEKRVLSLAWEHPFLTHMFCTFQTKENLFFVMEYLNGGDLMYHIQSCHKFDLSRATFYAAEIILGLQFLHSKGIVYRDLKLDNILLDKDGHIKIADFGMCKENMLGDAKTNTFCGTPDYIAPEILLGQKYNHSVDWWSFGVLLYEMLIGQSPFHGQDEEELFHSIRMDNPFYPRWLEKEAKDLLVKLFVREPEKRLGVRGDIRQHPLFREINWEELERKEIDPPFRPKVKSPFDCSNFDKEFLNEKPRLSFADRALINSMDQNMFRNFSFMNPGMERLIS

- IC50 [1]: 22 ± 3 nM
- Selectivity (Compound E), PKC ζ ([1]; IC50 relative to βI (=1)): 2.8
- IC50 [2]: 8 ± 0.5 nM
- Selectivity (Compound E), PKC βI ([2]; IC50 relative to βI (=1)): 1
- IC50 [3]: 3100 ± 200 nM
- Selectivity (Compound E), PKC α ([3]; IC50 relative to βI (=1)): 387
- Selectivity (Compound E), PKC ι ([4]; IC50 relative to βI (=1)): 94
- Selectivity (Compound E), PKC η ([5]; IC50 relative to βI (=1)): 1650
- Selectivity (Compound E), PKC ε ([6]; IC50 relative to βI (=1)): 287
- Selectivity (Compound E), PKC γ ([7]; IC50 relative to βI (=1)): 550
- Selectivity (Compound E), PKC θ ([8]; IC50 relative to βI (=1)): 1775
- IC50 [9]: 25 ± 2 nM
- Selectivity (Compound E), PKC δ ([9]; IC50 relative to βI (=1)): 3.1
Structure (SMILES): CSCC[C@H](NC(=O)[C@H](Cc1ccccc1)NC(=O)[C@H](CNC(=O)CNC(=O)c1ccc([N+](=O)[O-])cc1)NC(=O)CNC(=O)[C@H](CCC(N)=O)NC(=O)[C@H](CCCNC(=N)N)NC(=O)[C@@H](N)CCCNC(=N)N)C(=O)N[C@@H](Cc1ccc(O)cc1)C(=O)N[C@@H](Cc1ccccc1)C(=O)NCCS [Compound E] (H-RRQG[Dap]([Gly-Benzoyl(4-NO2)])FMYF-Cysteamide)

- Fold selectivity (IC50), PKC ζ [1, 10]: 1 fold
- Fold selectivity (IC50), PKC β1 [2, 10]: 730 fold
- Fold selectivity (IC50), PKC α [3, 10]: 6333 fold
- Fold selectivity (IC50), PKC ι ([4]; relative to most potently inhibited isoform (=1): δ for F, ζ for G, text prints τ): 1493 fold
- Fold selectivity (IC50), PKC η [5, 10]: 2040 fold
- Fold selectivity (IC50), PKC ε [6, 10]: 4600 fold
- Fold selectivity (IC50), PKC γ [7, 10]: 5093 fold
- Fold selectivity (IC50), PKC θ [8, 10]: 2227 fold
- IC50 [9]: 5200 ± 100 nM
- Fold selectivity (IC50), PKC δ [9, 10]: 693 fold
Structure (SMILES): CSCC[C@H](NC(=O)[C@H](Cc1ccccc1)NC(=O)[C@H](CNC(=O)CNC(=O)c1ccc([N+](=O)[O-])cc1)NC(=O)CNC(=O)[C@H](CCC(N)=O)NC(=O)[C@H](CCCNC(=N)N)NC(=O)[C@H](CCCNC(=N)N)N(Cc1cccc(O)c1O)Cc1cccc(O)c1O)C(=O)N[C@@H](Cc1ccc(O)cc1)C(=O)N[C@@H](Cc1ccccc1)C(=O)NCCS [Compound G] (X2-RQG[Dap]([Gly-Benzoyl(4-NO2)])FMYF-Cysteamide)
